Test results taken from patent US12636285B2 (ViiV Healthcare Company, priority 2019, dated 2026).
“And” between values parts separate entries of the source, which are not always exact repeats. Equal values may be shown once. Read-outs that look alike come from different tables or passages of the source.

Legend:
[1] = Fertility studies in rats; type: in vivo, rat; settings: up to 400 mg/kg/day, dose with maternal toxicity
HIV-1111B = assay: Antiviral activity in an acutely infected T-cell line; type: cell-based, HIV-1; settings: Human immunodeficiency virus 1, read-out: median EC50
[2] = Binding to human plasma proteins; type: in vitro ADME; settings: read-out: % Bound to human plasma proteins (converted)
[3] = Multiple-dose pharmacokinetics after monthly IM injections, population PK post-hoc estimates FLAIR and ATLAS; type: in vivo, human; settings: 600-mg monthly IM injection
[4] = tested on: HIV-1 group M (subtypes A, B, C, D, F, G, and H) primary isolates; assay: Antiviral activity against group M primary isolates; type: cell-based; settings: Human immunodeficiency virus 1, read-out: EC50 values
[5] = tested on: human cellular DNA polymerases α, β, and γ; assay: Inhibition of human cellular DNA polymerases; type: biochemical
[6] = Lactating rats, exposure of pups through milk; type: in vivo, rat; settings: administered to lactating rats
Source text: The Centers for Disease Control and Prevention recommends that HIV-1-infected mothers in the United States not breastfeed their infants to avoid risking postnatal transmission of HIV-1 infection. It is not known if the components of the Combination are present in human breast milk, affect human milk production, or have effects on the breastfed infant. […] Animal Data: Cabotegravir: […] Rilpivirine: […]

[7] = cited from earlier work
[8] = Pharmacokinetics in specific populations (renal, hepatic impairment, UGT1A1 genotype); type: in vivo, human; settings: for exposure higher than matched controls: n=8
Source text: No dosage adjustment is necessary for patients with mild to severe renal impairment (not on dialysis).
No dosage adjustment is necessary for patients with mild to moderate hepatic impairment (Child-Pugh Score A or B).
No dose adjustment is required in subjects with UGT1A1 polymorphisms.

[9] = Mass balance studies, single-dose oral [14C] drug; type: in vivo, human; settings: single-dose oral [14C] drug
[10] = QT crossover trial of oral rilpivirine in healthy adults; type: in vivo, human
Source text: The maximum mean time-matched (95% upper confidence bound) differences in QTcF interval from placebo after baseline correction was 2.0 (5.0) msec (i.e., below the threshold of clinical concern).

[11] = Phase 3 clinical trials of oral rilpivirine (rash); type: in vivo, human
Source text: According to another aspect of the main embodiment, precautions are taken prior to and during treatment with the Combination. Severe skin and hypersensitivity reactions have been reported during postmarketing experience with oral rilpivirine-containing regimens including cases of Drug Reaction with Eosinophilia and Systemic Symptoms (DRESS). While some skin reactions were accompanied by constitutional symptoms such as fever, other skin reactions were associated with organ dysfunctions, including elevations in hepatic serum biochemistries.

[12] = tested on: HIV-1 with NNRTI substitutions; assay: Cross-resistance of rilpivirine, NNRTI substitutions; type: cell-based
[13] = Genotoxicity: bacterial reverse mutation assay, mouse lymphoma assay, in vivo rodent micronucleus assay
[14] = in vivo
Source text: The observed hepatocellular findings in mice may be rodent specific.

[15] = Pharmacokinetic properties of the components of the Combination (Table 6); design: species or system human; settings: in vivo
HIV-1 = assay: Antiviral activity in combination with other antivirals, cell culture; type: cell-based
group O primary isolates = assay: Antiviral activity against group O primary isolates; type: cell-based, HIV-1; settings: Human immunodeficiency virus 1, read-out: EC50 values

In the case of Cc1cc(/C=C/C#N)cc(C)c1Nc1ccnc(Nc2ccc(C#N)cc2)n1 [Rilpivirine, 4-[[4-[[4-[(E)-2-cyanoethenyl]-2,6-dimethylphenyl]amino]-2-pyrimidinyl]amino]benzonitrile], the “effects on mating or fertility” value [1] is reported as “no effects on mating or fertility”, the EC50 (HIV-1111B) is reported as 0.73 nM and 0.00027 µg/mL and the fraction unbound [2] is reported as 0.003. The “Ctrough, geometric mean” value [3] was 82.2 ng/mL, the AUC ([3]; human, in vivo, read-out: AUCtau, geometric mean) was 65600 ng·h/mL and the Cmax ([3]; human, in vivo, read-out: Cmax, geometric mean) was 116 ng/mL. For the same compound, the EC50 [4] was 0.07 nM to 1.01 nM and 3e-05 µg/mL to 0.00037 µg/mL, the “inhibition of human cellular DNA polymerases α, β, and γ” value [5] was “does not inhibit” and the presence in milk [6] was “present in milk”. For the same compound, the “prevalence of birth defects in live births” value ([7]; first trimester exposure to rilpivirine-containing regimens) was 0.9%, the “prevalence of birth defects in live births” value ([7]; second/third trimester exposure to rilpivirine-containing regimens) was 1.24% and the “exposure higher than matched controls” value ([8]; mild hepatic impairment (Child-Pugh Score A)) was 47%. The “exposure higher than matched controls” value ([8]; moderate hepatic impairment (Child-Pugh Score B)) was 5%, the “effect of mild renal impairment on exposure” value ([8]; oral rilpivirine, population pharmacokinetic analyses) was “no clinically relevant effect” and the “% of dose excreted as total 14C in feces” value [9] was 85%. For the same compound, the “% of dose excreted as total 14C in urine” value [9] was 6%, the “% of dose excreted as unchanged drug in feces” value [9] was “(26) %” and the “% of dose excreted as unchanged drug in urine” value [9] was “(<1) %”. For the same compound, the “maximum mean time-matched (95% upper confidence bound) difference in QTcF interval from placebo after baseline correction” value ([10]; oral 25 mg once daily, steady state) was 2.0 (5.0) msec, the “maximum mean time-matched (95% upper confidence bound) difference in QTcF interval from placebo after baseline correction” value ([10]; oral 75 mg once daily) was 10.7 (15.3) msec and the “maximum mean time-matched (95% upper confidence bound) difference in QTcF interval from placebo after baseline correction” value ([10]; oral 300 mg once daily) was 23.3 (28.4) msec. For the same compound, the “Grade 4 rash” value [11] was “no Grade 4 rash was reported”, the “treatment-related rashes with at least Grade 2 severity, subjects” value [11] was 3% and the “susceptibility with K103N substitution by itself” value [12] was “did not show reduced susceptibility”. For the same compound, the genotoxicity [13] was “not genotoxic”, the carcinogenicity ([14]; mouse) was “positive for hepatocellular neoplasms” and the carcinogenicity ([14]; rat) was “not carcinogenic”. The Tmax ([15]; human, im, intramuscular injection, read-out: Tmax, median (converted)) was 3 to 4 days, the half-life ([15]; human, im, intramuscular injection, read-out: t1/2 (absorption rate limited), mean) was 91 to 196 days and the “Major route of elimination” value [15] was “Metabolism”. For the same compound, the Metabolic pathways [15] was “CYP3A”, the “antiviral activity combined with listed NNRTIs, NRTIs, protease inhibitors, enfuvirtide, maraviroc, or raltegravir” value (HIV-1) was “not antagonistic” and the EC50 (group O primary isolates) was 2.88 nM to 8.45 nM and 0.00106 µg/mL to 0.0031 µg/mL.
